Source: patent publication US4254256A, “Amino sugar compound” (Toyo Jozo company, Ltd., priority 1977, dated 1981)

Columns and labels:
Solubility in solvents = type: physicochemical
amylase = assay: Amylase test in vitro (amylase inhibitor unit); type: biochemical; conditions: 1 AIU = amount of inhibitor for about 50% inhibition; starch substrate, pH 6.9, 35° C.
Method: The amylase activity of the novel amino sugar compound of the present invention was measured by the following method.
Amylase inhibitor unit (1 AIU) is defined as the amount of inhibitor required to control the amylase unit by about 50%. The amylase unit (AU) is the value of enzyme to divide 1μ equivalent of glucoside bond in starch for 1 minute under the following test conditions. The μ equivalent of this divided bond is determined as reduced μ equivalent of sugar formed by Kurie's method which uses dinitrosalicylic acid. Standard curve using maltose is given as μ equivalent of maltose equivalent. A testing solution (0-20 μl) in 0.4 ml of a solution (pH 6.9) containing 0.001 mol of CaCl2, 0-10 μg of the inhibitor and 0.02 mol of sodium glycerophosphate is added to 0.1 ml of an amylase solution (20 to 22 AU/ml). This mixture is equilibrated in a water bath of 35° C. for about 10-20 minutes. Then, this is cultured at 35° C. for 5 minutes together with 0.5 ml of a 1% starch solution (soluble starch No. 1,252 from Marck, Darmstadt) preheated to 35° C. and thereafter 1 ml of dinitrosalicylic acid reagent (P. Bernfeld, Colowick-Kaplan, Meth. Enzymol., 1, 149) is added thereto. For developing color, the batch is heated in a boiling water bath for 5 minutes and then cooled and 10 ml of distilled water is added thereto. Absorbance of 540 nm is measured in comparison with blanks prepared in the same manner without using amylase. For evaluation, amylase activity which is still effective after addition of inhibitor is read from previously recorded amylase standard curve and inhibiting rate (%) of the amylase used is calculated from said amylase activity. The inhibiting rate is plotted as function of the quotient: [formula] Inhibiting point of 50% is read from this curve and is converted to AIU/mg of the inhibitor.

[1] = acetone, ethyl acetate, chloroform
[2] = water, methanol, dimethylformamide, dimethylsulfoxide, hot ethanol

Row | Solubility in solvents (Solubility in solvents; [1]) | Solubility in solvents (Solubility in solvents; [2]) | Amylase inhibitor unit (amylase) | SMILES
1 | insoluble | soluble | 3.4×10^2 AIU/mg | OCC1=CC(NC2C(CO)OC(O[C@H]3[C@H](O)[C@@H](O)C(O)O[C@@H]3CO)C(O)C2O)C(O)C(O)C1O (some centres unmarked) [[I] (wherein n=1 and m=0)]
2 | insoluble | soluble | 3.6×10^2 AIU/mg | OCC1=CC(NC2C(CO)OC(O[C@H]3[C@H](O)[C@@H](O)C(O[C@H]4[C@H](O)[C@@H](O)C(O)O[C@@H]4CO)O[C@@H]3CO)C(O)C2O)C(O)C(O)C1O (some centres unmarked) [[I] (wherein n=2 and m=0)]
3 |  |  | 1.2×10^3 AIU/mg | OCC1=CC(NC2C(CO)OC(O[C@H]3[C@H](O)[C@@H](O)C(O[C@H]4[C@H](O)[C@@H](O)C(O)O[C@@H]4CO)O[C@@H]3CO)C(O)C2O)C(O)C(O)C1OC1O[C@H](CO)[C@@H](O)[C@H](O)[C@H]1O (some centres unmarked) [[I] (wherein n=2, m=1)]
4 |  |  | 1.4×10^3 AIU/mg | OCC1=CC(NC2C(CO)OC(O[C@H]3[C@H](O)[C@@H](O)C(O[C@H]4[C@H](O)[C@@H](O)C(O[C@H]5[C@H](O)[C@@H](O)C(O)O[C@@H]5CO)O[C@@H]4CO)O[C@@H]3CO)C(O)C2O)C(O)C(O)C1O (some centres unmarked) [[I] (wherein n=3, m=0)]
